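In this assay, cells in 96-well plates receive the compound at five concentrations for 48 hours. Endpoints are linearly interpolated between the surrounding concentrations. GI50: concentration for 50% inhibition of growth. The concentration for full growth arrest is given as TGI.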
Experiments:
Experiment in all cases: growth of human tumour cells (NCI), 48 h
SK-MEL-2 melanoma = tested on: SK-MEL-2 melanoma
RPMI-8226 leukemia = tested on: RPMI-8226 leukemia
OVCAR-3 ovarian = tested on: OVCAR-3 ovarian
OVCAR-5 ovarian = tested on: OVCAR-5 ovarian
M14 melanoma = tested on: M14 melanoma
CCRF-CEM leukemia = tested on: CCRF-CEM leukemia
HCT-15 colon = tested on: HCT-15 colon
ACHN renal = tested on: ACHN renal
TK-10 renal = tested on: TK-10 renal
MDA-MB-435 = tested on: MDA-MB-435

| Structure (SMILES) | TGI (SK-MEL-2 melanoma) [µM] | TGI (RPMI-8226 leukemia) [µM] | TGI (OVCAR-3 ovarian) [µM] | TGI (OVCAR-5 ovarian) [µM] | TGI (M14 melanoma) [µM] | TGI (CCRF-CEM leukemia) [µM] | TGI (HCT-15 colon) [µM] | TGI (ACHN renal) [µM] | TGI (TK-10 renal) [µM] | GI50 (RPMI-8226 leukemia) [µM] | GI50 (OVCAR-5 ovarian) [µM] | GI50 (CCRF-CEM leukemia) [µM] | GI50 (MDA-MB-435) [µM] | TGI (MDA-MB-435) [µM] | GI50 (ACHN renal) [µM] | GI50 (TK-10 renal) [µM] | GI50 (SK-MEL-2 melanoma) [µM] | GI50 (OVCAR-3 ovarian) [µM] | GI50 (M14 melanoma) [µM] | GI50 (HCT-15 colon) [µM] |
| --- | --- | --- | --- | --- | --- | --- | --- | --- | --- | --- | --- | --- | --- | --- | --- | --- | --- | --- | --- | --- |
| CC(C)C(NCc1c2ccccc2nc2ccccc12)C(=O)O (stereo unspecified) | > 100 | > 100 | > 100 | > 100 | > 100 | 88.3 | > 100 | > 100 | > 100 | – | – | – | – | – | – | – | – | – | – | – |
| O=C(c1nc2ccccc2[nH]1)C1C(c2cccc([N+](=O)[O-])c2)C2CC3CCCCC3N2[C@@]12C(=O)Nc1cc(Cl)ccc12 (stereo partly specified) | – | 5.6 | – | 3.11 | – | > 100 | – | 7.2 | 4.91 | 1.71 | 1.48 | 3.11 | 1.65 | 3.19 | 2.23 | 2.12 | – | – | – | – |
| CCC1C(=O)OCc2c1cc1n(c2=O)Cc2ccccc2-1 (stereo unspecified) | > 100 | > 100 | > 100 | > 100 | > 100 | > 100 | > 100 | > 100 | > 100 | – | – | – | – | – | – | – | – | – | – | – |
| CC(C)S(=O)(=O)ON1C(=O)c2ccc([N+](=O)[O-])cc2C1=O | > 100 | – | > 100 | > 100 | > 100 | > 100 | > 100 | > 100 | > 100 | – | – | – | – | – | – | – | – | – | – | – |
| O=C1CCC(=O)C(C(=O)CCC(=O)Nc2ccc(Cl)cc2)C1 (stereo unspecified) | > 100 | > 100 | > 100 | > 100 | > 100 | > 100 | > 100 | > 100 | > 100 | – | – | – | – | – | – | – | – | – | – | – |
| COc1cc2ccc(C(=O)O)cc2cc1OC | > 100 | > 100 | > 100 | > 100 | > 100 | > 100 | > 100 | > 100 | > 100 | – | – | – | – | – | – | – | – | – | – | – |
| Cc1cccc2c1C(=O)OC2(c1cccc2ccccc12)c1cccc2ccccc12 | > 100 | – | > 100 | > 100 | > 100 | > 100 | > 100 | > 100 | > 100 | – | – | – | – | – | – | – | – | – | – | – |
| Cc1cccc(Cc2cnc(NC(=O)/C=C/c3ccco3)s2)c1 | > 100 | > 100 | 0.0914 | > 100 | > 100 | > 100 | > 100 | > 100 | > 100 | 0.0403 | 0.208 | 0.0433 | – | – | 0.0645 | > 100 | 0.0737 | 0.0312 | 0.031 | 0.0427 |
| CC(C)N(C(=O)C12C3C4C5C3C1(C(=O)N(C(C)C)C(C)C)C5C42)C(C)C (stereo unspecified) | > 100 | > 64.4 | > 100 | > 100 | > 100 | > 68.3 | > 100 | > 100 | > 100 | – | – | – | – | – | – | – | – | – | – | – |
| Cc1ccc(/C=C2\CN(C(=O)CCN3CCC(=NO)CC3)C/C(=C\c3ccc(C)cc3)C2=O)cc1 | 7.02 | 0.885 | – | 3.47 | – | – | – | 2.83 | – | 0.286 | 1.79 | – | – | – | 1.4 | – | 2.75 | – | – | – |
| Nc1ccc(C(=O)N/C(=C\c2ccc3c(c2)OCO3)c2nc3ccc4c(c3[nH]2)C(=O)c2ccccc2C4=O)cc1 | 75.4 | > 100 | > 100 | > 100 | > 100 | 92.6 | > 100 | 64.9 | 85.7 | – | – | – | – | – | – | – | – | – | – | – |
| CN(C)/C=C/C(=O)c1cccc(C(=O)/C=C/N(C)C)n1 | > 100 | > 100 | > 100 | > 100 | > 100 | > 100 | > 100 | > 100 | > 100 | – | – | – | – | – | – | – | – | – | – | – |
| O=C(/C=C/c1ccc(OCCCOc2ccc(/C=C/C(=O)c3ccc(Cl)cc3)cc2)cc1)c1ccc(Cl)cc1 | > 100 | > 100 | > 100 | > 100 | > 100 | > 100 | > 100 | > 100 | > 100 | – | – | – | – | – | – | – | – | – | – | – |
| COc1cccc(C2N3CCCCC3[C@@H]3c4[nH]c5ccccc5c4CCN23)c1OC (stereo partly specified) | 29.2 | 42.7 | 25.9 | 29.4 | 29.6 | 35.4 | 30.8 | 28.6 | 33.4 | – | – | – | – | – | – | – | – | – | – | – |
| CCC(C)Cn1c(C)nc2c1C(=O)c1ccccc1C2=O (stereo unspecified) | 76.5 | – | 66.7 | – | > 100 | 96.8 | > 100 | > 100 | > 100 | – | – | – | – | – | – | – | – | – | – | – |
| Cc1nc(=O)n2c(c1C(=O)Nc1ccc(Cl)cc1)NCCC2 | > 100 | > 100 | > 100 | > 100 | > 100 | > 100 | > 100 | > 100 | > 100 | – | – | – | – | – | – | – | – | – | – | – |
| O=C1/C(=C/c2ccc(Cl)cc2)COc2ccc(Br)cc21 | > 100 | 74.4 | > 100 | > 100 | – | > 100 | – | > 100 | > 100 | – | – | – | – | – | – | – | – | – | – | – |
| C=CCN1C(=O)C/C(=C2/CCC(=O)N2CC=C)C1=O | > 100 | – | > 100 | > 100 | > 100 | > 100 | > 100 | > 100 | > 100 | – | – | – | – | – | – | – | – | – | – | – |
| C/C(=N/OCCC(=O)O)C1CC1 | > 100 | > 100 | > 100 | – | > 100 | > 100 | > 100 | > 100 | > 100 | – | – | – | – | – | – | – | – | – | – | – |
| c1cc[c]([Sn]([O]c2cccc3cccnc23)([c]2ccccc2)[c]2ccccc2)cc1 | 0.059 | 0.05 | 0.0337 | 0.0424 | 0.0319 | 0.11 | 0.0285 | 0.0332 | 0.0693 | 0.0184 | 0.0119 | 0.0115 | – | – | 0.0168 | 0.0229 | 0.0217 | 0.0171 | 0.0166 | 0.0139 |
| Cc1ccc(S(=O)(=O)N/N=C/CN2C(=O)c3ccccc3C2=O)cc1 | > 100 | > 100 | – | – | > 100 | > 100 | > 100 | > 100 | > 100 | – | – | – | – | – | – | – | – | – | – | – |
| COc1ccccc1NC(=O)NS(=O)(=O)c1ccccc1 | > 100 | – | – | > 100 | > 100 | – | – | > 100 | > 100 | – | – | – | – | – | – | – | – | – | – | – |
| NC(=O)COc1ccc(Br)cc1Br | > 100 | > 100 | > 100 | > 100 | > 100 | – | > 100 | > 100 | – | – | – | – | – | – | – | – | – | – | – | – |

From PubChem BioAssay (NCI)
